Results reported in patent publication US4390547A, “2,2-Dimethyl-3-(substituted ethyl)cyclopropane carboxylate pesticidal compositions and methods” (priority 1981, dated 1983).
Like-named read-outs stand apart in the source and are kept apart here.

What was measured:
[1] = Light stability test (Test Example 3); assay type: physicochemical; conditions: glass plate, uv light
Description: Into 2.0 ml of acetone were dissolved 80 mg of each test compound. A 5 μl portion of the solution was taken and spread on a glass plate (Micro Standard Cover Glass, 18 m/m No. 1, 200 pcs, Matsunami Glass Ind., Ltd.) and the acetone was evaporated. The specimen was exposed to ultraviolet light from a fluorescent lamp (Tokyo Shibaura Electric Co., Ltd., FL20BL, glow-type, 100 V, 24.5 W, wavelength=3600 A) which was fixed just above the specimen at a distance of 11 cm at a temperature of 31°-35° C. for a predetermined exposure time. The test liquid was washed away with 1.0 ml of methanol containing 0.04% of dioctyl phthalate as an internal reference and high-speed liquid chromatography was carried out on the washings to determine the residual amount of the test compound.

[2] = test system: houseflies (Musca domestica); assay: Mortality test against houseflies by the settling mist method (Utility Examples 2 and 3); assay type: in vivo; conditions: cis/trans 50/50, 24 hours
Description: 0.2 part of each of Compounds (1) to (38) was prepared and 0.8 part of piperonyl butoxide was added to each of them. To this mixture was added a sufficient amount of kerosene to make 100 parts, followed by stirring. By this procedure there was obtained an oil preparation of each Compound.
To 0.1 part of each of Compounds (1) to (38) was added 0.08 part of permethrin, followed by the addition of a sufficient amount of kerosene to make 100 parts. The mixture was stirred to obtain an oil preparation of each compound.
(§1) By the settling mist method, a mortality test against houseflies, (Musca domestica) was carried out using the oil preparations obtained according to Formulation Example 1 from Compounds (1), (5), (7), (9), (11) and (15) [Each compound is a mixture of cis- and trans-isomer in a ratio 50/50]. After 24 hours, the flies were examined for deaths. The mortality (%) was not less than 90% for each of Compounds (1), (5), (7), (9), (11) and (15).
as §1, with “against houseflies” for “against houseflies, (Musca domestica)”, “obtained in” for “obtained according to”, “Example 3” for “Example 1”, “(9), (11), (12), (15), (17)” for “(9), (11)”, “and (28)” for “and (15)”, “and (28).” for “and (15).”

[3] = test system: housefly (Musca domestica); assay: Mortality test against houseflies by topical application (Test Example 1); assay type: in vivo; conditions: 24 h
Description: Each test compound was accurately weighed and a 1% solution and an 0.1% solution of the sample in acetone were prepared. A 1 μl portion of either of the above solutions was micropipetted onto the thoracic dorsal part of each female adult housefly (Musca domestica) under ether anaesthesia and the fly was released in a high-walled dish together with feed. The dish was covered with a metal-wire net and maintained at 25° C. After 24 hours, the test flies were inspected for deaths and the mortality (%) was calculated. Thirty test flies were used per concentration group.

guppies = assay: Fish toxicity test (Test Example 4); assay type: in vivo; conditions: concentration killing 50% of female guppies during 48 hours, 20° C.; [Mixture] = cis/trans 50/50
Description: The mixture was stirred well to prepare a test water. Ten female guppies from 3 to 4 months of age were released into the test water and maintained at 20° C. The concentration of the test compound at which 50% of the guppies were killed during the ensuring 48 hours was determined. [This concentration is referred to as TLm (medium tolerance limit, ppm)].
A rank corresponds to TLm of not less than 10 ppm.
B rank corresponds to TLm of 0.5-10 ppm.
C rank corresponds to TLm of not more than 0.5 ppm.

green rice leafhoppers = assay: Mortality of green rice leafhoppers on sprayed rice seedlings (Utility Example 1); conditions: green rice leafhopper, in vivo, 24 h
Description: To 30 parts of each of Compounds (1) to (38) were added 50 parts of xylene and 20 parts of Sorpol SM-200 (a surfactant, trademark of Toho Chemical Co., Ltd.). The mixture was stirred well and dissolved to obtain a 30% emulsifiable concentrate.
The emulsifiable concentrate prepared from Compounds (7), (11), (12), (15), (17), (21) and (22) [Each compound is a mixture of cis- and trans-isomer in a ratio of 50/50] in Formulation Example 5 were each diluted 300-fold with water. Then, each of the dilutions was sprayed over rice seedlings 25 days after sowing at the rate of 10 ml/pot. The pot was covered with a wire net and 15 green rice leafhoppers were released under the net. After 24 hours, the leafhoppers were examined for deaths. The mortality (%) was not less than 90% for each of Compounds (7), (11), (12), (15), (17), (21) and (22).

[4] = oil preparation of Formulation Example 1 (0.2 part compound + 0.8 part piperonyl butoxide)
[5] = oil preparation of Formulation Example 3 (0.1 part compound + 0.08 part permethrin)
[6] = exposure time 3.5 hours, ultraviolet light 3600 A, 31°-35° C., [Mixture] = cis/trans 50/50, read-out: Residue (%)
[7] = exposure time 3 days, ultraviolet light 3600 A, 31°-35° C., [Mixture] = cis/trans 50/50, read-out: Residue (%)

**Q.** Which results are given for `CC1(C)[C@H](C(=O)OCc2cccc(Oc3ccccc3)c2)[C@@H]1CC(Cl)(Cl)Cl` (relative stereo) [(1) [Cis-isomer], 3-Phenoxybenzyl 2,2-dimethyl-3-(2,2,2-trichloroethyl)cyclopropanecarboxylate]?
**A.** remaining at 3.5 h [1]: 97%; remaining at 72 h [1]: 91%; remaining at 120 h [1]: 85%

**Q.** With `CC(Cl)(Cl)CC1C(C(=O)OC(C#N)c2cccc(Oc3ccccc3)c2)C1(C)C` (stereo not drawn) [Compound (9), 3-Phenoxy-α-cyanobenzyl 2,2-dimethyl-3-(2,2-dichloropropyl)cyclopropanecarboxylate] as the molecule, how does the “mortality (%)” value [2, 4] read?
**A.** not less than 90%

**Q.** What about the “mortality (%)” value [2, 5] of the same molecule?
**A.** not less than 90%

**Q.** Which mortality at 1 µg/fly [3] does the source give for `CC1(C)[C@H](CC(Cl)(Cl)Cl)[C@H]1C(=O)OC(C#N)c1cccc(Oc2ccccc2)c1` (relative stereo) [(7) [Trans-isomer], 3-Phenoxy-α-cyanobenzyl 2,2-dimethyl-3-(2,2,2-trichloroethyl)cyclopropanecarboxylate] here?
**A.** 96.7%

**Q.** What about the mortality at 10 µg/fly [3] of the same molecule?
**A.** 100%

**Q.** With `CC1(C)[C@H](C(=O)OC(C(N)=S)c2cccc(Oc3ccccc3)c2)[C@@H]1CC(Cl)(Cl)Cl` (stereo partly drawn) [(27) [Cis-isomer], 3-Phenoxy-α-thiocarbamoylbenzyl 2,2-dimethyl-3-(2,2,2-trichloroethyl)cyclopropanecarboxylate] as the molecule, how does the “TLm (medium tolerance limit)” value (guppies) read?
**A.** A (A rank corresponds to TLm of not less than 10 ppm.)

**Q.** With `CC1(C)C(CC(Cl)(Cl)Cl)C1C(=O)OC(C#N)c1cccc(Oc2ccccc2)c1` (stereo not drawn) [(7) [Mixture], 3-Phenoxy-α-cyanobenzyl 2,2-dimethyl-3-(2,2,2-trichloroethyl)cyclopropanecarboxylate] as the molecule, how does the remaining at 3.5 h [1] read?
**A.** 100%

**Q.** What about the remaining at 72 h [1] of the same molecule?
**A.** 84%

**Q.** And the remaining at 120 h [1]?
**A.** 75%

**Q.** Which remaining at 3.5 h [1] does the source give for `C#CC(OC(=O)C1C(CC(Cl)(Cl)Cl)C1(C)C)c1cccc(Oc2ccccc2)c1` (stereo not drawn) [(11) [Mixture], 3-Phenoxy-α-ethynylbenzyl 2,2-dimethyl-3-(2,2,2-trichloroethyl)cyclopropanecarboxylate] here?
**A.** 100%

**Q.** And the remaining at 72 h [1]?
**A.** 71%

**Q.** And the remaining at 120 h [1]?
**A.** 65%

**Q.** Which “mortality (%)” value [2, 5] does the source give for `CC1(C)C(CC(Cl)(Cl)Cl)C1C(=O)OCc1coc(Cc2ccccc2)c1` (centres unmarked) [(28), 5-Benzyl-3-furylmethyl 2,2-dimethyl-3-(2,2,2-trichloroethyl)cyclopropanecarboxylate] here?
**A.** not less than 90%

**Q.** With `C#CC(OC(=O)C1C(CC(Cl)(Cl)Cl)C1(C)C)c1cccc(Oc2ccc(Cl)cc2)c1` (stereo not drawn) [(21) [Mixture], 3-(4-Chlorophenoxy)-α-ethynylbenzyl 2,2-dimethyl-3-(2,2,2-trichloroethyl)cyclopropanecarboxylate] as the molecule, how does the remaining at 3.5 h [1] read?
**A.** 100%

**Q.** And the remaining at 72 h [1]?
**A.** 78%

**Q.** And the remaining at 120 h [1]?
**A.** 56%

**Q.** Which remaining at 3.5 h [1] does the source give for `C=CCC1=C(C)C(OC(=O)C2C(CC(Cl)(Cl)Cl)C2(C)C)CC1=O` (centres unmarked) [(38) [Mixture], Allethronyl 2,2-dimethyl-3-(2,2,2-trichloroethyl)cyclopropanecarboxylate] here?
**A.** 21%

**Q.** What about the remaining at 72 h [1] of the same molecule?
**A.** 0%

**Q.** Which remaining at 3.5 h [1] does the source give for `CC1(C)C(CC(Cl)(Cl)Cl)C1C(=O)OCc1coc(Cc2ccccc2)c1` (centres unmarked) [(28) [Mixture], 5-Benzyl-3-furylmethyl 2,2-dimethyl-3-(2,2,2-trichloroethyl)cyclopropanecarboxylate] here?
**A.** 5%

**Q.** And the remaining at 72 h [1]?
**A.** 0%

**Q.** For `CC1(C)C(CC(Cl)(Cl)Cl)C1C(=O)OCc1cccc(Oc2ccccc2)c1` (centres unmarked) [(1), 3-Phenoxybenzyl 2,2-dimethyl-3-(2,2,2-trichloroethyl)cyclopropanecarboxylate], which “mortality (%)” value [2, 4] is on record?
**A.** not less than 90%

**Q.** What about the “mortality (%)” value [2, 5] of the same molecule?
**A.** not less than 90%

**Q.** Which results are given for `CC1(C)C(CC(Cl)(Cl)Cl)C1C(=O)OC(C#N)c1cccc(OC=C(Cl)Cl)c1` (stereo not drawn) [(34) [Mixture], 3-(2,2-dichlorovinyloxy)-α-cyanobenzyl 2,2-dimethyl-3-(2,2,2-trichloroethyl)cyclopropanecarboxylate]?
**A.** remaining at 3.5 h [1, 6]: 100%; remaining at 72 h [1, 7]: 88%; remaining at 120 h ([1]; exposure time 5 days, ultraviolet light 3600 A, 31°-35° C., [Mixture] = cis/trans 50/50, read-out: Residue (%)): 44%

**Q.** Which results are given for `C=CCC1=C(C)C(OC(=O)C2C(C=C(C)C)C2(C)C)CC1=O` (centres unmarked) [Allethrin, allethrin, reference compound]?
**A.** remaining at 3.5 h [1, 6]: 14%; remaining at 72 h [1, 7]: 0%

**Q.** What does the source list for `C#CC(OC(=O)[C@@H]1[C@H](CC(C)(Cl)Cl)C1(C)C)c1cccc(Oc2ccccc2)c1` (relative stereo) [(13) [Cis-isomer], 3-Phenoxy-α-ethynylbenzyl 2,2-dimethyl-3-(2,2-dichloropropyl)cyclopropanecarboxylate]?
**A.** TLm (medium tolerance limit) (guppies): A (A rank corresponds to TLm of not less than 10 ppm.); remaining at 3.5 h [1]: 100%; remaining at 72 h [1]: 88%; remaining at 120 h [1]: 73%

**Q.** For `CC1(C)C(CC(Cl)(Cl)Cl)C1C(=O)OC(C#N)c1cccc(Oc2ccc(Cl)cc2)c1` (stereo not drawn) [(15) [Mixture], 3-(4-Chlorophenoxy)-α-cyanobenzyl 2,2-dimethyl-3-(2,2,2-trichloroethyl)cyclopropanecarboxylate], which remaining at 3.5 h [1] is on record?
**A.** 100%

**Q.** What about the remaining at 72 h [1] of the same molecule?
**A.** 93%

**Q.** What about the remaining at 120 h [1] of the same molecule?
**A.** 96%

**Q.** For `CC(Cl)(Cl)CC1C(C(=O)OCc2cccc(Oc3ccccc3)c2)C1(C)C` (centres unmarked) [Compound (5), 3-Phenoxybenzyl 2,2-dimethyl-3-(2,2-dichloropropyl)cyclopropanecarboxylate], which “mortality (%)” value [2, 4] is on record?
**A.** not less than 90%

**Q.** What about the “mortality (%)” value [2, 5] of the same molecule?
**A.** not less than 90%

**Q.** Which “mortality (%)” value (green rice leafhoppers) does the source give for `C#CC(OC(=O)C1C(CC(Cl)(Cl)Cl)C1(C)C)c1cccc(Oc2ccc(Cl)cc2)c1` (stereo not drawn) [(21), 3-(4-Chlorophenoxy)-α-ethynylbenzyl 2,2-dimethyl-3-(2,2,2-trichloroethyl)cyclopropanecarboxylate] here?
**A.** not less than 90%

**Q.** Which results are given for `CC1(C)C(CC(Cl)(Cl)Cl)C1C(=O)OCN1C(=O)C2=C(CCCC2)C1=O` (centres unmarked) [(37) [Mixture], 3,4,5,6-Tetrahydrophthalimidomethyl 2,2-dimethyl-3-(2,2,2-trichloroethyl)cyclopropanecarboxylate]?
**A.** remaining at 3.5 h [1]: 16%; remaining at 72 h [1]: 0%

**Q.** For `CC1(C)C(CC(Cl)(Cl)Cl)C1C(=O)OC(C#N)c1cccc(Oc2ccc(Br)cc2)c1` (stereo not drawn) [(17), 3-(4-Bromophenoxy)-α-cyanobenzyl 2,2-dimethyl-3-(2,2,2-trichloroethyl)cyclopropanecarboxylate], which “mortality (%)” value [2, 5] is on record?
**A.** not less than 90%

**Q.** Which “mortality (%)” value (green rice leafhoppers) does the source give for `C#CC(OC(=O)C1C(CC(Br)(Br)Br)C1(C)C)c1cccc(Oc2ccccc2)c1` (stereo not drawn) [Compound (12), 3-Phenoxy-α-ethylnylbenzyl 2,2-dimethyl-3-(2,2,2-tribromoethyl)cyclopropanecarboxylate] here?
**A.** not less than 90%

**Q.** With `CC1(C)C(C=C(Cl)Cl)C1C(=O)OCc1cccc(Oc2ccccc2)c1` (mixture of isomers) [Permethrin, 3-phenoxybenzyl(+)-cis,trans-2,2-dimethyl-3-(2,2-dichlorovinyl)cyclopropanecarboxylate, reference compound] as the molecule, how does the “TLm (medium tolerance limit)” value (guppies) read?
**A.** C (C rank corresponds to TLm of not more than 0.5 ppm.)
